The results in this text go back to US8163727B2, “Biphenyloxyacetic acid derivatives for the treatment of respiratory disease” (AstraZeneca AB, priority 2004, dated 2012).

The target of one data set is T1, CRTh2 (Homo sapiens, UniProt Q9Y5Y4).
T1 construct: expressed in transfected cells; host or cells: HEK cells (membrane preparation)
T1 sequence (Q9Y5Y4 1-395): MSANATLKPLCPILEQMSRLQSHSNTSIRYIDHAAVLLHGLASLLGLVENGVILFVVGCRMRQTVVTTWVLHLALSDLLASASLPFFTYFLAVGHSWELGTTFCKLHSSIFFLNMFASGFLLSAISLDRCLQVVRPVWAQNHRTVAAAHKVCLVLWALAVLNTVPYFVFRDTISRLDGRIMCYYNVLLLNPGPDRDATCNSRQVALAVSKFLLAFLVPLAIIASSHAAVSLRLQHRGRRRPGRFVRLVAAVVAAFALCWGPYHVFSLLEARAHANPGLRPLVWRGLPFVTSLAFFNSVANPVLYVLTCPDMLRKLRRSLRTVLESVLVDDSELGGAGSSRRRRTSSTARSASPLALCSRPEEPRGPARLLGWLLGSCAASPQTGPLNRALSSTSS
The experiment in a line: Ligand binding assay ([3H]PGD2 SPA on membranes of HEK cells expressing rhCRTh2/Gα16). As to conditions: [3H]PGD2 displacement, HEK cell membranes containing CRTh2; read-out: pIC50 value (converted). The protocol:
[^3H]PGD2 was purchased from Perkin Elmer Life Sciences with a specific activity of 100-210 Ci/mmol. All other chemicals were of analytical grade.
HEK cells expressing rhCRTh2/Gα16 were routinely maintained in DMEM containing 10% Foetal Bovine Serum (HyClone), 1 mg/ml geneticin, 2 mM L-glutamine and 1% non-essential amino acids. For the preparation of membranes, the adherent transfected HEKcells were grown to confluence in two layer tissue culture factories (Fisher, catalogue number TKT-170-070E). Maximal levels of receptor expression were induced by addition of […] sodium butyrate for the last 18 hours of culture. The adherent cells were washed once with phosphate buffered saline (PBS, 50 ml per cell factory) and detached by the addition of 50 ml per cell factory of ice-cold membrane homogenisation buffer [20 mM HEPES (pH 7.4), 0.1 mM dithiothreitol, 1 mM EDTA, 0.1 mM phenyl methyl sulphonyl fluoride and 100 μg/ml bacitracin]. Cells were pelleted by centrifugation at 220×g for 10 minutes at 4° C., re-suspended in half the original volume of fresh membrane homogenisation buffer and disrupted using a Polytron homogeniser for 2×20 second bursts keeping the tube in ice at all times. […] The final pellet was re-suspended in 4 ml of membrane homogenisation buffer per cell factory used and the protein content determined. […]
All assays were performed in Corning clear bottomed, white 96-well NBS plates (Fisher). […] (The optimum coating concentrations were determined for each batch of membranes) The beads were pelleted by centrifugation (800×g for 7 minutes at 4° C.), washed once with assay buffer (50 mM HEPES pH 7.4 containing 5 mM magnesium chloride) and finally re-suspended in assay buffer at a bead concentration of 10 mg/ml. […]
Compounds and DK-PGD2 were dissolved in DMSO and diluted in the same solvent to 100× the required final concentration. […] The assay plate was incubated at room temperature for 2 hours and counted on a Wallac Microbeta liquid scintillation counter (1 minute per well).

Take `C[C@H](Oc1ccc(Cl)cc1-c1cc(F)c(S(=O)(=O)N2CCOCC2)cc1F)C(=O)O` [Example 5]: the IC50 on CRTh2 was 1.78 nM.
As for `CC(C)S(=O)(=O)c1ccc(-c2cc(C(F)(F)F)ccc2OCC(=O)O)cc1F` [Example 6, [[3′-Fluoro-4′-[(1-methylethyl)sulfonyl]-5-(trifluoromethyl)[1,1′-biphenyl]-2-yl]oxy]acetic acid], the melting point – broadly, the temperature of the solid-liquid transition – was in the range of 170 to 171 °C.
In turn, `CCS(=O)(=O)c1ccc(-c2cc(C(F)(F)F)ccc2OCC(=O)O)cc1C(F)(F)F` [Example 9, [[4′-(Ethylsulfonyl)-3′,5-bis(trifluoromethyl)[1,1′-biphenyl]-2-yl]oxy]acetic acid] displayed a melting point of 174 to 175 °C.
`CCS(=O)(=O)c1ccc(-c2cc(C(F)(F)F)ccc2O[C@@H](C)C(=O)O)cc1C(F)(F)F` [Example 10, (2S)-2-[[4′-(Ethylsulfonyl)-3′,5-bis(trifluoromethyl)[1,1′-biphenyl]-2-yl]oxy]propanoic acid] showed a melting point of 124 to 126 °C.
`O=C(O)COc1ccc(Cl)cc1-c1ccc(S(=O)(=O)N2CCOCC2)c(C(F)(F)F)c1` [Example 11] had a melting point of 208 to 209 °C. The IC50 at CRTh2 is 35.5 nM.
On to `C[C@H](Oc1ccc(Cl)cc1-c1ccc(S(=O)(=O)N2CCOCC2)c(C(F)(F)F)c1)C(=O)O` [Example 12, (2S)-2-[[5-Chloro-4′-(4-morpholinylsulfonyl)-3′-(trifluoromethyl)[1,1′-biphenyl]-2-yl]oxy]propanoic acid], for which the melting point lay in the range of 148 to 149 °C.
`O=C(O)COc1ccc(Cl)cc1-c1ccc(C(=O)N2CCCC2)c(C(F)(F)F)c1` [Example 13, [[5-Chloro-4′(1-pyrrolidinylcarbonyl)-3′-(trifluoromethyl)[1,1′-biphenyl]-2-yl]oxy]-acetic acid] gave a melting point of 197 to 198 °C. At CRTh2, the IC50 was 7.08 nM.
`C[C@H](Oc1ccc(Cl)cc1-c1ccc(C(=O)N2CCCC2)c(C(F)(F)F)c1)C(=O)O` [Example 14, (2S)-2-[[5-Chloro-4′-(1-pyrrolidinylcarbonyl)-3′-(trifluoromethyl)[1,1′-biphenyl]-2-yl]oxy]propanoic acid] gave a melting point of 164 to 165 °C.
On the same count and under the same terms, in the case of `C[C@H](Oc1ccc(Cl)cc1-c1ccc(S(C)(=O)=O)c(C(F)(F)F)c1)C(=O)O` [Example 16, (2S)-2-[[5-Chloro-4′-(methylsulfonyl)-(3′-trifluoromethyl)-[1,1′-biphenyl]-2-yl]oxy]propanoic acid] it was 77 to 79 °C.
